Measurements published in patent US9403832B2, “Pyrazolo[1,5-a]pyrimidine-based compounds, compositions comprising them, and methods of their use” (Lexicon Pharmaceuticals, Inc., priority 2012, dated 2016).

Each molecule was assayed against T1, AAK1 (Homo sapiens, UniProt Q2M2I8) (assay: HEK281 cell-based assay (CBA)). Settings: HEK293F cells transfected with full length human AAK1 and AP2M1; phospho-mu2 Western blot; 3 hours incubation.
T1 construct: NP_055726.2
T1 sequence (Q2M2I8 1-863 isoform Q2M2I8-2): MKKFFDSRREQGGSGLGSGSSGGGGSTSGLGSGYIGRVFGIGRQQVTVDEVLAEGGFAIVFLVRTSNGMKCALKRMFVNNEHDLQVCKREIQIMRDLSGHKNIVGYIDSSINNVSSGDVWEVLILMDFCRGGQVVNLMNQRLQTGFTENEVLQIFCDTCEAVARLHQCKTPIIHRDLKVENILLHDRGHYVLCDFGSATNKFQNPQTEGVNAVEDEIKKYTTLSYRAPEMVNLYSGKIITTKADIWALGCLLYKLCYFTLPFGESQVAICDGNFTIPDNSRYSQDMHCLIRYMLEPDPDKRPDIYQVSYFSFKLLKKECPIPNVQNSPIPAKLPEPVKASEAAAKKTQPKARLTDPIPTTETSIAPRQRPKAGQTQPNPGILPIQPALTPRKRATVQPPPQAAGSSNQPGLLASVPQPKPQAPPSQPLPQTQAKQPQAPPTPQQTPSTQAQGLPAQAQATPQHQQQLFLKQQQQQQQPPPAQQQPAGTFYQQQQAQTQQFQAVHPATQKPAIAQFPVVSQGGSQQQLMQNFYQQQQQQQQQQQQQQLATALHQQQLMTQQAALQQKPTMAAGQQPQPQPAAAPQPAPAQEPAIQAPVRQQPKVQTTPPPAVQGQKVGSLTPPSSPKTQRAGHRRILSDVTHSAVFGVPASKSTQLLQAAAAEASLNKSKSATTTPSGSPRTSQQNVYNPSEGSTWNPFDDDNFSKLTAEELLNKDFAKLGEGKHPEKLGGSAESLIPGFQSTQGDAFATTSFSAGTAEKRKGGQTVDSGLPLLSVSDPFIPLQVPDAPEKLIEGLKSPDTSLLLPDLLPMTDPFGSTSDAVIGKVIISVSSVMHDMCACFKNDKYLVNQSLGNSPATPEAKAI
Method: HEK293F cells were cultured in media containing DMEM (Gibco, cat. #11965), 10% FBS (SAFC Biosciences, cat. #12103C), 1× GPS (glutamine, penicillin and streptomycin). On day one, cells were plated on a 10 cm dish so that they are ˜80% confluent at time of transfection. Roughly 12 million cells were in a 10 cm dish at time of transfection. On day two, each dish was transfected with 48 ug DNA and 144 ul Lipofectamine 2000 (Invitrogen, cat. #11668-019). The DNA was comprised of a mixture (per 10 cm dish) containing 3 ug AAK1/HA/pIRES (full length human, NCBI accession no. NP_055726.2), 45 μg Flag/AP2MI/pcDNA (full length human), and 1.5 ml OPTI-MEM. The Lipofectamine 2000 is made up of a mixture (per 10 cm dish) containing 144 μl Lipofectamine 2000 and 1.5 ml OPTI-MEM. Each mixture was transferred to individual 15 ml tubes and incubated at RT for 5 minutes, and then the two mixes were combined and incubated at RT for 20 minutes.
Growth media was then aspirated from each 10 cm plate and replaced with 10 ml of DMEM+10% FBS (no GPS). Finally, 3 ml DNA/Lipofectamine mix was added to each 10 cm dish and mix gently followed by incubate of plate overnight at 37° C. and 5% CO2.
On day three, compounds were diluted in 100% DMSO at 1000× final concentration, followed by 3-fold serial dilutions for a total of 5 concentrations tested. Four compounds were tested per 10 cm dish. One ul of each compound dilution was then pipetted into a deep-well, 96-well plate, followed by addition of 500 μl DMEM+0.5% FBS into each well for a 2× final concentration of each compound. Cells were resuspended in a 10 cm dish by simple pipetting (HEK293 cells come off the plate that easy at this point) and then transferred to a 50 ml conical tube and pelleted by centrifugation at 1000 rpm for 5 min. Cell pellets were then resuspended in 2.75 ml DMEM+0.5% FBS per 10 cm dish and 100 μl of cell suspension transferred into each well of 96-well TC plate. Finally, 100 μl of 2× compound diluted in DMEM+0.5% FBS was then added into wells containing cell suspension for a 1× final concentration. Plates were then incubated at 37° C. and 5% CO2 for 3 hours followed by transferring of cell suspensions from each well into 12-tube PCR strips. The PCR strips were spun in a tip rack at 1000 rpm for 5 minutes to pellet cells and media was then removed by pipetting without disturbing the cell pellet.
To prepare for Western Blot analysis, cell pellets were resuspend in 40 ul 1× LDS-PAGE sample buffer (Invitrogen, cat.# NP0008)+2× Halt phophatase and protease inhibitor cocktail (Thermo Scientific, cat. #1861284), followed by sonicating each with microtip sonicator set at 5 for 8-10 seconds. Five ul of 10× NuPage Sample Reducing Agent (with 50 mM DTT) was to each sample followed by heat denaturing at 70 C for 10 min on PCR machine. A total of 10 μl per sample was loaded into each lane of a 4-20% Tris-Glycine Criterion 26-well gel (Biorad, cat. #345-0034) for the phospho-mu2 blot and 10 μl per lane in a 4-12% Bis-Tris (+MES buffer) NuPAGE 26-well gel (Invitrogen, cat.# WG1403BX10) for the mu2 blot. For controls, 2 ng of phospho-mu2 or 20 ng mu2/Flag proteins were loaded in the last well of each gel. After SDS-PAGE, samples on each gel were transferred to PVDF membrane using an iBlot and membranes were blocked for one hour in TBST+5% milk, followed by wash 3× for 5-10 min with TBST. Criterion gels were probed with rabbit anti-phospho-mu2 (1:5000; a rabbit polyclonal antibody produced by New England Peptide and affinity purified at Lexicon) in TBST+5% BSA, whereas, NuPAGE gels were probed with mouse anti-Flag (1:500; Sigma, cat.# F1804) in TBST+5% milk, and these primary antibodies were incubated overnight at 4° C. on a rocker.
In the case of `CC(C)COC(=O)N(C)CCNc1ccn2ncc(-c3ccc(C(N)=O)cc3)c2n1` [isobutyl (2-((3-(4-carbamoylphenyl)pyrazolo[1,5-a]pyrimidin-5-yl)amino)ethyl)(methyl)carbamate], the IC50 is reported as no more than 10 nM.

These molecules were tested against T1, AAK1 (assay: P81 filter plate assay). Settings: full-length human AAK1, Mu2 substrate, 33P-ATP.
Type: biochemical
Method: Compounds were serially diluted into a Labcyte LDV plate (Labcyte, cat#LP-0200) using a Mutiprobe (PerkinElmer) and Biomek FX (Beckman Coulter) so that the highest compound concentration was at 96 μM. Compounds were then pinged (75 nL per well) into a Greiner 384-well reaction plate (Greiner, #781076) using an ECHO 550 Liquid Handler (Labcyte). A total of 12 μl reaction buffer (IMAP buffer containing Tween and DTT, from Molecular Devices) was then added to each well of columns 1 and 13 for the negative controls and 12 μl of 2× AAK1 (0.2 nM full-length human protein, NCBI accession no. NP_055726.2) was added to the remaining wells. Enzyme was then pre-incubated with compound for 10 minutes at RT. Reactions were initiated upon Minitrak (PerkinElmer) addition of 12 μl substrate mix containing 2× Mu2 (0.2 μM, full length human protein), 2× cold ATP (2 μM), and 1.3 μCi of hot ^33P-ATP. […] proceeded for one hour at RT. Meanwhile, Millipore 384-well P81 filter plates (Millipore, catalog #MZPHNOW10) were placed on a plate washer (Zoom ZW, from Titertek) and pre-wet with 50 μl 1% phosphoric acid. Kinase reactions were then stopped upon addition of 24 μl of 2% phosphoric acid to each well and the Minitrak was then used to transfer 40 μl from each well into the pre-wet Millipore 384-well P81 filter plates. Reaction mixtures were incubated for 10 minutes at RT in the P81 plates, followed by washing five times with 100 μl/well of 1% phosphoric acid using the Zoom filter washer. The bottom of each filter plate was sealed followed by addition of 20 μl Microscint 40 to each well, sealing the top of the plates with Flashplate cover, and then waiting one hour until reading on the TopCount (PerkinElmer).
`COc1ncccc1-c1cnn2ccc(N3CCN(C(=O)OC(C)C)C3=O)nc12` [isopropyl 3-(3-(2-methoxypyridin-3-yl)pyrazolo[1,5-a]pyrimidin-5-yl)-2-oxoimidazolidine-1-carboxylate] gave an IC50 of no more than 1000 nM.
In the case of `CC(C)OC(=O)N1CCN(c2ccn3ncc(-c4cccn5ccnc45)c3n2)CC1` [isopropyl 4-(3-(imidazo[1,2-a]pyridin-8-yl)pyrazolo[1,5-a]pyrimidin-5-yl)piperazine-1-carboxylate], the IC50 is reported as no more than 100 nM.
Molecule `COc1ncc(F)cc1-c1cnn2ccc(N3CCN(CC(F)(F)F)CC3)nc12` [3-(5-fluoro-2-methoxypyridin-3-yl)-5-(4-(2,2,2-trifluoroethyl)piperazin-1-yl)pyrazolo[1,5-a]pyrimidine] has an IC50 of no more than 1000 nM.
`COc1ncccc1-c1cnn2ccc(-n3cnc(CO)c3)nc12` [(1-(3-(2-methoxypyridin-3-yl)pyrazolo[1,5-a]pyrimidin-5-yl)-1H-imidazol-4-yl)methanol] was tested, and the IC50 was no more than 100 nM.
With `Cc1ccc(-c2cnn3ccc(N4CCN(C(=O)OC(C)C)CC4)nc23)cc1F` [isopropyl 4-(3-(3-fluoro-4-methylphenyl)pyrazolo[1,5-a]pyrimidin-5-yl)piperazine-1-carboxylate] the IC50 was no more than 100 nM.
Molecule `COc1nc(C)ccc1-c1cnn2ccc(N(C)CCCOC(C)(C)C)nc12` [N-(3-(tert-butoxy)propyl)-3-(2-methoxy-6-methylpyridin-3-yl)-N-methylpyrazolo[1,5-a]pyrimidin-5-amine] has an IC50 of no more than 100 nM.
Molecule `COc1ccc(-c2cnn3ccc(N4CCN(C(=O)OC(C)C)CC4)nc23)c(F)n1` [isopropyl 4-(3-(2-fluoro-6-methoxypyridin-3-yl)pyrazolo[1,5-a]pyrimidin-5-yl)piperazine-1-carboxylate] has an IC50 of no more than 100 nM.
In the case of `COc1ccc(-c2cnn3ccc(N4CC[C@H](N(C)C(=O)OC(C)C)C4)nc23)c(OC)n1` [(S)-isopropyl (1-(3-(2,6-dimethoxypyridin-3-yl)pyrazolo[1,5-a]pyrimidin-5-yl)pyrrolidin-3-yl)(methyl)carbamate], the IC50 is reported as no more than 100 nM.
Work on `[2H]C1([2H])N(C(=O)OC(C)C)C([2H])([2H])C([2H])([2H])N(c2ccn3ncc(Br)c3n2)C1([2H])[2H]` [isopropyl 4-(3-bromopyrazolo[1,5-a]pyrimidin-5-yl)-d8-piperazine-1-carboxylate] yielded an IC50 of no more than 100 nM.
Work on `CC(C)OC(=O)N1CCC[C@H]1CN(C)c1ccn2nccc2n1` [(S)-isopropyl 2-((methyl(pyrazolo[1,5-a]pyrimidin-5-yl)amino)methyl)pyrrolidine-1-carboxylate] yielded an IC50 of no more than 1000 nM.
`COC(=O)COC(=O)N1CCN(c2ccn3ncc(-c4cccnc4OC)c3n2)CC1` [2-methoxy-2-oxoethyl 4-(3-(2-methoxypyridin-3-yl)pyrazolo[1,5-a]pyrimidin-5-yl)piperazine-1-carboxylate] showed an IC50 of no more than 100 nM.
`COc1ncccc1-c1cnn2ccc(N3CCN(C[C@@H](N)CC(C)C)CC3)nc12` [(S)-1-(4-(3-(2-methoxypyridin-3-yl)pyrazolo[1,5-a]pyrimidin-5-yl)piperazin-1-yl)-4-methylpentan-2-amine] was tested, and the IC50 was no more than 100 nM.
`COC/C=C/c1cnn2ccc(N3CCN(C(=O)OC(C)C)CC3)nc12` [(E)-isopropyl 4-(3-(3-methoxyprop-1-en-1-yl)pyrazolo[1,5-a]pyrimidin-5-yl)piperazine-1-carboxylate] was tested, and the IC50 was no more than 1000 nM.
`CC(C)OC(=O)N1CCN(c2ccn3ncc(I)c3n2)CC1` [isopropyl 4-(3-iodopyrazolo[1,5-a]pyrimidin-5-yl)piperazine-1-carboxylate] was tested, and the IC50 was no more than 100 nM.
`COCC(COC)OC(=O)N1CCN(c2ccn3ncc(-c4cccnc4OC)c3n2)CC1` [1,3-dimethoxypropan-2-yl 4-(3-(2-methoxypyridin-3-yl)pyrazolo[1,5-a]pyrimidin-5-yl)piperazine-1-carboxylate] was tested, and the IC50 was no more than 100 nM.
In the case of `COc1ncccc1-c1cnn2ccc(N(C)CCN(C)C(=O)OC(C)C)nc12` [isopropyl (2-((3-(2-methoxypyridin-3-yl)pyrazolo[1,5-a]pyrimidin-5-yl)(methyl)amino)ethyl)(methyl)carbamate], the IC50 is reported as no more than 100 nM.
In the case of `CC(C)OC(=O)N1CCN(c2ccn3ncc(-c4cncc(F)c4)c3n2)CC1` [isopropyl 4-(3-(5-fluoropyridin-3-yl)pyrazolo[1,5-a]pyrimidin-5-yl)piperazine-1-carboxylate], the IC50 is reported as no more than 10 nM.
For `Cc1ncccc1-c1cnn2ccc(N3CCN(C(=O)OC(C)C)CC3)nc12` [isopropyl 4-(3-(2-methylpyridin-3-yl)pyrazolo[1,5-a]pyrimidin-5-yl)piperazine-1-carboxylate], the IC50 was no more than 100 nM.
In the case of `CC(C)(C)OC(=O)N1CCC[C@H]1CNc1ccn2ncc(-c3ccccc3)c2n1` [(S)-tert-butyl 2-(((3-phenylpyrazolo[1,5-a]pyrimidin-5-yl)amino)methyl)pyrrolidine-1-carboxylate], the IC50 is reported as no more than 10 nM.
`COc1nc(C)ccc1-c1cnn2ccc(N(C)CCN(C)C(=O)OC(C)C)nc12` [isopropyl (2-((3-(2-methoxy-6-methylpyridin-3-yl)pyrazolo[1,5-a]pyrimidin-5-yl)(methyl)amino)ethyl)(methyl)carbamate] gave an IC50 of no more than 100 nM.
Work on `CC(C)(C)OC(=O)N1CCC[C@H]1CNc1ccn2ncc(-c3ccc(C(N)=O)cc3)c2n1` [(S)-tert-butyl 2-(((3-(4-carbamoylphenyl)pyrazolo[1,5-a]pyrimidin-5-yl)amino)methyl)pyrrolidine-1-carboxylate] yielded an IC50 of no more than 10 nM.
Molecule `COCc1cn(-c2ccn3ncc(-c4cccnc4OC)c3n2)cn1` [5-(4-(methoxymethyl)-1H-imidazol-1-yl)-3-(2-methoxypyridin-3-yl)pyrazolo[1,5-a]pyrimidine] has an IC50 of no more than 100 nM.
`CCOC(=O)N1CCN(c2ccn3ncc(-c4cc(F)ccc4OC)c3n2)CC1` [ethyl 4-(3-(5-fluoro-2-methoxyphenyl)pyrazolo[1,5-a]pyrimidin-5-yl)piperazine-1-carboxylate] was tested, and the IC50 was no more than 10 nM.
